Eleven compounds from patent EP4790046A1, “NOVEL COMPOUND DERIVED FROM MYRISTICA FRAGRANS, AND ANTICANCER COMPOSITION COMPRISING SAME” (Korea Institute of Science and Technology, priority 2023, dated 2025) can be followed below.

Like-named read-outs stand apart in the source and are kept apart here.

The test system of one data set is SNU-719. In words: alamarBlue cell viability (survival rate, IC50), SNU-719. Type of data set: cell-based. The settings on record: for Cancer cell line survival rate (%) / viability at 10 µM: SNU-719 (gastric cancer), compound 10 µM, 48 hours; for IC50: SNU719 (gastric cancer), 2.5-40 µM, positive control = doxorubicin; for viability at 10 µM: read-out: Cancer cell line survival rate (%). From the text:
(§1) A p-value < 0.05 was considered statistically significant.

The subject of a further data set is SNU-C5. In words: alamarBlue cell viability (survival rate, IC50), SNU-C5. The settings on record: for Cancer cell line survival rate (%) / viability at 10 µM: SNU-C5 (colorectal cancer), compound 10 µM, 48 hours; for viability at 10 µM: read-out: Cancer cell line survival rate (%). Type of data set: cell-based.
Excerpt: as §1
In general terms: The colour change of resazurin is a common sign of viable cells or microbes.

Another data set relates to AGS. In words: alamarBlue cell viability (survival rate, IC50), AGS. The format is cell-based. The settings on record: AGS (gastric cancer); for Cancer cell line survival rate (%) / viability at 10 µM: compound 10 µM, 48 hours; for IC50 / viability at 10 µM: Homo sapiens; for IC50: 2.5-40 µM, positive control = doxorubicin; for viability at 10 µM: read-out: Cancer cell line survival rate (%).
Excerpt: as §1

For a further data set, the system named is HepG2. In words: alamarBlue cell viability (survival rate), HepG2. The settings on record: HepG2 (liver cancer), compound 10 µM, 48 hours; for viability at 10 µM: Homo sapiens, read-out: Cancer cell line survival rate (%). Type of data set: cell-based.
Excerpt: as §1

The test system of another data set is SNU201. In words: alamarBlue cell viability (survival rate), SNU201. Type of data set: cell-based. The note with it: SNU201 (glioblastoma), compound 10 µM, 48 hours; for viability at 10 µM: read-out: Cancer cell line survival rate (%).
Excerpt: as §1

For another data set, the system named is SNU466. In words: alamarBlue cell viability (survival rate), SNU466. The format is cell-based. The settings on record: SNU466 (glioblastoma), compound 10 µM, 48 hours; for viability at 10 µM: read-out: Cancer cell line survival rate (%).
Excerpt: as §1

The subject of the next data set is SNU-81. Briefly: alamarBlue cell viability (survival rate, IC50), SNU-81. Type of data set: cell-based. The note with it: for Cancer cell line survival rate (%) / viability at 10 µM: SNU-81 (colorectal cancer), compound 10 µM, 48 hours; for viability at 10 µM: read-out: Cancer cell line survival rate (%).
Excerpt: as §1

The subject of the next data set is 23132/87. In words: alamarBlue cell viability (survival rate, IC50), 23132/87. The format is cell-based. The settings on record: 23132/87 (gastric cancer); for Cancer cell line survival rate (%) / viability at 10 µM: compound 10 µM, 48 hours; for IC50: 2.5-40 µM, positive control = doxorubicin; for viability at 10 µM: read-out: Cancer cell line survival rate (%).
Excerpt: as §1

In another data set the test system is SW48. In words: alamarBlue cell viability (survival rate, IC50), SW48. The format is cell-based. The note with it: SW48 (colorectal cancer); for Cancer cell line survival rate (%) / viability at 10 µM: compound 10 µM, 48 hours; for IC50 / viability at 10 µM: Homo sapiens; for IC50: 2.5-40 µM, positive control = oxaliplatin; for viability at 10 µM: read-out: Cancer cell line survival rate (%).
Excerpt: as §1

In the next data set the test system is MiaPaCa-2. In words: alamarBlue cell viability (survival rate), MiaPaCa-2. Type of data set: cell-based. The settings on record: MiaPaCa-2 (pancreatic cancer), compound 10 µM, 48 hours; for viability at 10 µM: Homo sapiens, MIA PaCa-2, read-out: Cancer cell line survival rate (%).
Excerpt: as §1

Data set [1] has as its system various cancer cell lines. Briefly: alamarBlue cell viability, statements across the cell line panel. The note with it: for anticancer activity: various cancer cell lines.
Protocol: AGS, SW48, HepG2, and MiaPaCa-2 was purchased from ATCC (American Type Culture Collection, USA), SNU cell lines from the Korean Cell Line Bank (KCLB, Korea), and 23132/87 from the Leibniz Institute DSMZ - German Collection of Microorganisms and Cell Cultures GmbH (DSMZ, Germany). All cell lines were cultured in RPMI-1640 medium (HyClone, USA) supplemented with 10% FBS (Gibco, USA) and 1% penicillin-streptomycin (HyClone, USA) under conditions of 5% CO2, 37°C.
Cells were seeded at a density of 5 × 10^3cells/well in a 96-well plate for 24 hours, then treated with the compound at an appropriate concentration (10 µM) for 48 hours. After treatment, alamarBlue reagent was added at a volume ratio of 1/10 of the treatment volume and incubated for 4 hours in a 37°C cell incubator (protected from direct light). Cell viability was then determined by measuring absorbance values at 570 nm and 600 nm using a microplate reader. The anticancer effects of candidate compounds were evaluated by assessing the cell viability (%) of cells treated at specific concentrations and the half-maximal inhibitory concentration (IC50) of each natural product. Doxorubicin and oxaliplatin were used as positive controls for gastric and colorectal cancer, respectively.
Statistical analysis was performed using R software (version 4.2.2) (R Core Team). Differences between groups were assessed using student's t-test or 1-way ANOVA followed by post-hoc Tukey HSD test. A p-value < 0.05 was considered statistically significant.
Further, to measure the IC50 values against six cancer cell lines.
[2] abbreviates: SNUC5 (colorectal cancer), 2.5-40 µM, positive control = oxaliplatin, read-out: IC50.
The mark [3] stands for this setting: SNU81 (colorectal cancer), 2.5-40 µM, positive control = oxaliplatin, read-out: IC50.

For `C/C=C/c1ccc(O[C@H](C)[C@H](c2ccc(O)c(OC)c2)c2ccc(O)c(C(=O)CCCCCCCCc3ccc(O)c(O)c3)c2O)c(OC)c1` (relative stereo) [Compound 8, Myrifragranone A], the “Cancer cell line survival rate (%)” value with SNU-719 worked out at 2.27%; in the data set on SNU-C5, 4.41%; in the data set on AGS, 2.19%; with HepG2, 95.41%; in the data set with SNU201 it was 108.12%; with SNU466, 93.39%. The “Cancer cell line survival rate (%)” value is 10.02% with SNU-81, 3.92% with 23132/87, 2.04% with SW48 and 74.57% in the data set on MiaPaCa-2.

Take `C=CCc1cc(OC)c(O[C@H](C)[C@H](c2ccc(O)c(OC)c2)c2ccc(O)c(C(=O)CCCCCCCCc3ccc(O)c(O)c3)c2O)c(OC)c1` [Compound 1, Myricone A or Myrifragranone B, reference compound]: the IC50 – broadly, the concentration needed to halve the response being measured – in the data set with SNU-719 came out at 3.99 µM; in the data set on SNU-C5 (setting [2]), 6.32 µM; with AGS, 4.07 µM; with SNU-81 (setting [3]) it was 14.6 µM; in the data set with 23132/87, 4.09 µM; in the data set on SW48, 4.3 µM. The “Cancer cell line survival rate (%)” value in the data set with SNU-719 worked out at 3.95%; in the data set on SNU-C5, 8.73%; in the data set on AGS, 1.13%; in the data set with HepG2, 2.07%; in the data set on SNU201, 2.07%; in the data set on SNU466 it was 1.7%. Moreover, the “Cancer cell line survival rate (%)” value in the data set with SNU-81 stood at 94.79%; in the data set on 23132/87, 4.71%; with SW48 it was 1.75%; with MiaPaCa-2 it was 3.15%.

For the compound `C=CCc1cc(OC)c(O[C@H](C)[C@@H](c2ccc(O)c(OC)c2)c2ccc(O)c(C(=O)CCCCCCCCc3ccc(O)c(O)c3)c2O)c(OC)c1` [Compound 2, Myricone B], the IC50 with SNU-719 was 4.7 µM; with SNU-C5 (setting [2]) it was 6.85 µM; in the data set with AGS it was 4.59 µM; in the data set with SNU-81 (setting [3]), 16.6 µM; with 23132/87, 4.25 µM; in the data set on SW48, 6.18 µM. The viability at 10 µM stood at 4.55% with SNU-719; 22.1% with SNU-C5; 2.45% in the data set with AGS; 1.47% in the data set on HepG2; 1.43% with SNU201; 2.29% with SNU466. Further, the viability at 10 µM is 103% in the data set on SNU-81, 7.44% with 23132/87, 7.98% in the data set with SW48 and 3.67% in the data set with MiaPaCa-2.

Consider `C=CCc1cc(OC)c(O[C@H](C)[C@@H](c2ccc(O)c(OC)c2)c2ccc(O)c(C(=O)CCCCCCCCc3ccc(O)cc3)c2O)c(OC)c1` [Compound 4, Myricone D], for which the IC50 in the data set on SNU-719 came out at 5.01 µM; in the data set on SNU-C5 (setting [2]), 5.57 µM; with AGS, 7.27 µM; in the data set on SNU-81 (setting [3]), 16.9 µM; with 23132/87 it was 4.14 µM; in the data set on SW48, 5.73 µM. For the same compound, the “Cancer cell line survival rate (%)” value with SNU-719 is recorded as 10.19%; in the data set on SNU-C5, 12.41%; in the data set on AGS, 10.15%; in the data set with HepG2, 1.84%; with SNU201 it was 2.44%; with SNU466 it was 1.74%. In addition, the “Cancer cell line survival rate (%)” value in the data set on SNU-81 was 115.60%; in the data set with 23132/87 it was 8.41%; in the data set on SW48, 2.61%; in the data set on MiaPaCa-2, 3.54%. Further, the anticancer activity result in [1] is reported as “high anticancer activity”.

On to `C=CCc1ccc(O[C@H](C)[C@H](c2ccc(O)c(OC)c2)c2ccc(O)c(C(=O)CCCCCCCCc3ccc(O)c(O)c3)c2O)c(OC)c1` [Compound 5, Myricone E], for which the viability at 10 µM with SNU-719 is 45%; in the data set on SNU-C5 it was 37.6%; in the data set on AGS it was 42.1%; in the data set on HepG2 it was 2.34%; with SNU201, 0.61%; in the data set with SNU466, 0.58%. Also, the viability at 10 µM with SNU-81 worked out at 126%; with 23132/87 it was 52.1%; in the data set with SW48, 10.2%; with MiaPaCa-2 it was 1.64%.

Regarding `C=CCc1cc(OC)c(O[C@H](C)[C@H](c2ccc(O)c(OC)c2)c2cc(O)c(O)cc2CCCCCCCCC(=O)c2c(O)cccc2O)c(OC)c1` [Compound 6, Myricone F], the IC50 with SNU-719 came out at 2.58 µM; in the data set with SNU-C5 (setting [2]), 4.04 µM; in the data set with AGS, 3.35 µM; in the data set with SNU-81 (setting [3]), 10.3 µM; in the data set with 23132/87, 2.39 µM; in the data set with SW48, 3.09 µM. In addition, the viability at 10 µM turned out to be 1.36% in the data set with SNU-719; 3.53% in the data set with SNU-C5; 0.51% in the data set on AGS; 1.32% in the data set with HepG2; 1.4% with SNU201; 1.96% with SNU466. The viability at 10 µM with SNU-81 amounted to 55.8%; in the data set on 23132/87, 1.46%; in the data set on SW48 it was 0.82%; in the data set on MiaPaCa-2, 2.16%. For the same compound, in [1] (gastric cancer cell lines and colorectal cancer cell lines, 10 µM, 48 hours), the cytotoxic effects entry is “excellent cytotoxic effects”. For the same compound, the anticancer activity entry in data set [1] was “high anticancer activity”.

Turning to `C=CCc1cc(OC)c(O[C@@H](C)[C@H](Oc2cc(CCCCCCCCC(=O)c3c(O)cccc3O)ccc2O)c2ccc(O)c(OC)c2)c(OC)c1` [Compound 10, Myricone K], the viability at 10 µM was 1.85% in the data set on SNU-719; 4.94% with SNU-C5; 4.14% in the data set with AGS; 8.7% in the data set on HepG2; 3.28% in the data set with SNU201; 0.6% with SNU466. Also, the viability at 10 µM with SNU-81 amounted to 16.1%; in the data set on 23132/87 it was 2.77%; with SW48 it was 2.67%; in the data set on MiaPaCa-2 it was 4.3%. In addition, the anticancer activity result in data set [1] is “high anticancer activity”.

For the compound `COc1cc([C@H]2Oc3c(OC)cc(/C=C/Cc4c(CCCCCCCCC(=O)c5c(O)cccc5O)ccc(O)c4O)cc3[C@@H]2C)ccc1O` [Compound 18, Myricone T], the viability at 10 µM with SNU-719 was 104%; in the data set with SNU-C5, 78%; with AGS it was 91.9%; with HepG2, 89%; in the data set on SNU201, 104%; with SNU466 it was 86.2%. In addition, the viability at 10 µM in the data set with SNU-81 came to 102%; with 23132/87, 87.1%; in the data set with SW48 it was 83.5%; with MiaPaCa-2, 74.8%.

As for `COc1cc([C@H]2Oc3c(OC)cc(/C=C/Cc4ccc(O)c(C(=O)CCCCCCCCc5ccc(O)c(O)c5)c4O)cc3[C@@H]2C)ccc1O` [Compound 19, Myricone X], the viability at 10 µM in the data set with SNU-719 worked out at 108%; in the data set on SNU-C5, 69.6%; in the data set on AGS, 84.5%; in the data set with HepG2 it was 52.4%; in the data set with SNU201 it was 107%; with SNU466, 80.9%. The viability at 10 µM was determined as 102% in the data set with SNU-81, 89.3% in the data set with 23132/87, 69.7% in the data set on SW48 and 56.9% with MiaPaCa-2.

For the compound `O=C(CCCCCCCCc1cc(O)c(O)cc1-c1ccc(O)c(C(=O)CCCCCCCCc2ccc(O)c(O)c2)c1O)c1c(O)cccc1O` [Compound 26, Giganteones A, reference compound], the concentration for half-maximal inhibition (IC50) with SNU-719 was found to be 4.6 µM; with SNU-C5 (setting [2]), 3.72 µM; in the data set with AGS it was 1.71 µM; in the data set with SNU-81 (setting [3]) it was 8.94 µM; with 23132/87, 4.08 µM; with SW48 it was 2.77 µM. In data set [1] (six cancer cell lines, 2.5-40 µM), the “anticancer activity (comparison of IC50 values among compounds)” value is “overall superior activity to Myrifragranone B and Malabaricone C”.

Turning to `O=C1[O][Pt]2([NH][C@@H]3CCCC[C@H]3[NH]2)[O]C1=O` [oxaliplatin, reference compound], the half-inhibitory concentration (IC50) was 12.6 µM in the data set with SNU-C5 (SNUC5 cells, compound 2.5-40 µM, read-out: IC50 values) and 41.5 µM with SNU-81 (SNU81 cells, compound 2.5-40 µM, read-out: IC50 values).
